Reference: patent publication US20120100204A1, “TGF-Beta Stimulating Agent Compositions and Combinations” (TCP INNOVATIONS LTD, priority 2007, published 2012)

Assays:
tgfb2 mRNA = tgfb2 mRNA level by quantitative PCR in human aortic vascular smooth muscle cells; type: cell-based; conditions: 24 hrs
Experimental: (1995) Cardiovasc. Res. 29:848-55). […] The cells were then incubated for either 24 hrs or 72 hrs depending on the experiment. All treatment conditions were established in triplicate. The level of mRNA for tgfb1, tgfb2 and tgfb3 were estimated by quantitative PCR. The media was removed and RNA was carefully prepared using the Ambion RNAqueous4PCR kit (Ambion#1914) in accordance with the manufacturer's instructions. The purity of the RNA and the quantity was assessed spectrophotometrically. […] This analysis results in both a gel-like image as well as electrophoretic data. Indications of RNA degradation are: (a) decreasing ratio of ribosomal bands (b) additional peaks bellow the ribosomal bands (c) Decrease in overall RNA signal (d) shift towards shorter fragments. […] Next, the RNA was converted to cDNA using the ABI High-Capacity cDNA Archive Kit, in accordance with manufacturer's instructions. […] Samples were vortexed to ensure thorough mixing. cDNA was aliquoted into ABI 384 well plates using a multi-channel pipette, 4.5 μl of sample into each well. Samples were assayed in triplicate (that is, nine determinations in total were made for each condition, being three separate assays on each of three replicate culture wells). The assay mix and Universal Master Mix were prepared and aliquoted across the 384 well plates 5.5 μl in each well, using a single channel pipette. […] Universal Master Mix=5 μl; cDNA=4.5 μl. […] Quantitative PCR was performed using several primer/probe sets. […] In all quantitative PCR experiments, several additional controls were included: firstly, a control for each sample is run with no reverse transcription to ensure the mRNA sample is not contaminated with genomic DNA (although the manual design probe/primer sets were all selected to cross an exon/exon boundary, ensuring no detectable amplicon is produced from genomic DNA templates). […]

[1] = test system: human aortic vascular smooth muscle cells; experiment: toxicity to cultured smooth muscle cells; type: cell-based
Experimental: The cells were cultured (37° C.; 5% CO2) in DMEM+20% foetal calf serum (FCS), and subcultured every 5 days at 1:2 dilution, using 0.02% trypsin/EDTA (Gibco).
For the experiments, the cells were subcultured into 12-well cluster plates at 1×10^5 cells/cm^2, and allowed to grow for 24 hrs. […] The cells were then incubated for either 24 hrs or 72 hrs depending on the experiment. All treatment conditions were established in triplicate.

DBA/1 mice = experiment: collagen-induced arthritis, footpad thickness; type: in vivo; conditions: from the booster injection onwards, Tamoxifen 1 mg/kg/day p.o, aspirin 30 mg/kg/day p.o
Experimental: Collagen-induced arthritis was induced in adult male DBA/1 mice as previously described (Courtenay et al. (1980) Nature 283:666-8). Adult (12 week old) male DBA/1 mice were divided into groups of six animals. Mice received 100 μg per mouse of bovine type II collagen (Sigma) in Freunds Complete Adjuvant (FCA) by the subcutaneous route, while a control group received an identical injection of type I collagen in FCA. Twenty-one days later, all groups of mice received an intraperitoneal booster injection containing 100 μg per mouse of the same collagen type as previously, but in the absence of adjuvant. […] Foodpad thickness was determined each day using a digital caliper EC1507 (Moore & Wright) accurate to 0.01 mm. The thickness of each footpad was determined three times on each day by a single operator blind to the treatment condition of the mouse, and the footpad thickness of each mouse on each day was reported as the mean for the three measurements for all four paws. Errors represent the standard error of the mean among the six animals in each group.

[2] = Tamoxifen treatment; cited from earlier work
[3] = critical micelle concentration; type: physicochemical; conditions: in the presence of 20% foetal calf serum

| SMILES | Level of mRNA, estimated by qPCR: tgfb2 (tgfb2 mRNA; 10 μM A) [fold-change] | Level of mRNA, estimated by qPCR: tgfb2 (tgfb2 mRNA; 33 μM A) [fold-change] | Level of mRNA, estimated by qPCR: tgfb2 (tgfb2 mRNA; 100 μM A) [fold-change] | concentrations toxic to the cells ([1]; after 24 hrs) | doses toxic to the cells ([1]; after 72 hrs) | reduction of the maximal collagen-II induced footpad swelling (DBA/1 mice) [%] | endothelial function, a surrogate marker of atherosclerotic disease burden [2] | critical micelle concentration [3] |
| --- | --- | --- | --- | --- | --- | --- | --- | --- |
| CC(=O)Oc1ccccc1C(=O)O [Aspirin, acetylsalicylic acid] | 0.92 ± 0.10 | 1.00 ± 0.17 | 1.03 ± 0.16 |  |  |  |  |  |
| CC/C(=C(\c1ccccc1)c1ccc(OCCN(C)C)cc1)c1ccccc1 [Tamoxifen] |  |  |  | above 33 μM | above 10 μM | 36 | improved endothelial function | approximately 50 μM |
